These results are taken from patent publication US20100093817A1, “Compounds” (BIAL - PORTELA & CA S.A., priority 2007, published 2010).

Each structure is given as a SMILES string. Where a name gives a salt, the structure may show the parent alone.

Data set [1] concerns the target T1, human dopamine-β-hydroxylase (Homo sapiens, UniProt P09172).
T1 construct: SK-N-SH cells (ATCC HTB-11), a human neuroblastoma derived cell line, were used as a source of human dopamine-β-hydroxylase; host or cells: SK-N-SH human neuroblastoma cells
T1 sequence (P09172 1-617): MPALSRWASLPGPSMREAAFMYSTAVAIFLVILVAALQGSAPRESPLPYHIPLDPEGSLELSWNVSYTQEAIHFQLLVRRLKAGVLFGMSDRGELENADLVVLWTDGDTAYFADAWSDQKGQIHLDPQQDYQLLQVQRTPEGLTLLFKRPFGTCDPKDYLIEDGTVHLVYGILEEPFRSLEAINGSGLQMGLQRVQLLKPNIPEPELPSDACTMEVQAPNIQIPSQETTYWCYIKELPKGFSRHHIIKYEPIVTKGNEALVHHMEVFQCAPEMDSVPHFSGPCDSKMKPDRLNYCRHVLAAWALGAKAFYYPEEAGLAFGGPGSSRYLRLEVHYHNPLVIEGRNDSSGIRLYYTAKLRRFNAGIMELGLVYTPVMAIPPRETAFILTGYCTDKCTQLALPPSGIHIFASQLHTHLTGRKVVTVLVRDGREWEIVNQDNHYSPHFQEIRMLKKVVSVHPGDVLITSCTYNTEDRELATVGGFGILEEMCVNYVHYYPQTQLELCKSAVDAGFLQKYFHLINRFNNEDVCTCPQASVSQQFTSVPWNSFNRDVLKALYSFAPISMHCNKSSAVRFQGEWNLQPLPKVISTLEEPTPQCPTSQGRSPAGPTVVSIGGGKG
Put plainly: Human DβH in vitro assay: β-hydroxylation of dopamine to noradrenaline, SK-N-SH cells as enzyme source. Also noted: key to In vitro DβH inhibition: + = inhibitory activity. The data set is classed as biochemical. The settings on record: for In vitro DβH inhibition / IC50: SK-N-SH cells as source of human DβH, 50 mM dopamine, test compounds 0.3 to 10,000 nM; for IC50: read-out: In vitro DβH inhibition (IC50 μM); for % control Mean ± SEM: human DβH in vitro assay. Here is the method: Dopamine-β-hydroxylase activity was evaluated by the ability to β-hydroxylate dopamine to noradrenaline as previously described (Kojima, K., Parvez, S. and Nagatsu T. 1993. Analysis of enzymes in catecholamine biosynthesis. In Methods in Neurotransmitter and Neuropeptide Research, pp. 349-380: Elsevier Science Publishers). SK-N-SH cells (ATCC HTB-11), a human neuroblastoma derived cell line, were used as a source of human dopamine-β-hydroxylase. SK-N-SH cells cultured in 24 well plates were preincubated for 20 min in a reaction medium containing 200 mM sodium acetate, 30 mM N-ethylmaleimide, 5 μM copper sulphate, 0.5 mg/ml catalase aqueous solution, 1 mM pargyline, 10 mM sodium fumarate and 20 mM ascorbic acid. Thereafter, cells were incubated for further 45 min in the reaction medium with added increasing concentrations of dopamine (0.5 to 100 mM). During preincubation and incubation, the cells were continuously shaken and maintained at 37° C. The reaction was terminated by the addition of 0.2 M perchloric acid. The acidified samples were stored at 4° C. before injection into the high pressure liquid chromatograph for the assay of noradrenaline. In experiments conducted with the aim of studying the effects of new dopamine-β-hydroxylase inhibitors on enzyme activity, test compounds (0.3 to 10,000 nM) of interest were added to the preincubation and incubation solutions; the incubation was performed in the presence of a concentration (50 mM) of dopamine 2.5 times the corresponding Km value as determined in saturation experiments.

The conditions of data set [2]: literature finding; central as well as peripheral effects; cited from earlier work.

Consider `CC(=O)NCCc1c[nH]c(=S)n1[C@H]1COc2c(F)cc(F)cc2C1` [compound II, (R)-N-(2-(3-(6,8-difluorochroman-3-yl)-2-thioxo-2,3-dihydro-1H-imidazol-4-yl)ethyl)acetamide], for which, in data set [1], the “In vitro DβH inhibition” value is “+” and the concentration for half-maximal inhibition (IC50) (in general, the concentration that gives 50% inhibition) stood at 0.5 µM.

With `NC(=O)Cc1c[nH]c(=S)n1[C@H]1COc2c(F)cc(F)cc2C1` [compound IV, (R)-2-(3-(6,8-difluorochroman-3-yl)-2-thioxo-2,3-dihydro-1H-imidazol-4-yl)acetamide], in data set [1], the “In vitro DβH inhibition” value is reported as “+” and the IC50 worked out at 1.8 µM.

For `ONCCc1c[nH]c(=S)n1[C@H]1COc2c(F)cc(F)cc2C1` [compound V, (R)-1-(6,8-difluorochroman-3-yl)-5-(2-(hydroxyamino)ethyl)-1H-imidazole-2(3H)-thione hydrochloride], in data set [1], the “In vitro DβH inhibition” value is listed as “+” and the IC50 was determined as 0.5 µM.

For `O=C(O)Cc1c[nH]c(=S)n1[C@H]1COc2c(F)cc(F)cc2C1` [compound III, (R)-2-(3-(6,8-difluorochroman-3-yl)-2-thioxo-2,3-dihydro-1H-imidazol-4-yl)acetic acid], in data set [1], the “In vitro DβH inhibition” value is “+” and the IC50 worked out at 0.6 µM.

Take `O=S(=O)([O-])NCCc1c[nH]c(=S)n1[C@H]1COc2c(F)cc(F)cc2C1.[Na+]` [compound VIII, Sodium (R)-2-(3-(6,8-difluorochroman-3-yl)-2-thioxo-2,3-dihydro-1H-imidazol-4-yl)ethylsulfamate]: the “In vitro DβH inhibition” value in data set [1] is “+”. In addition, the “% control Mean ± SEM” value was found to be 32.1 ± 1.1 % control in data set [1] (compound at 0.5 μM), 20.3 ± 0.7 % control in data set [1] (compound at 1 μM) and 3.5 ± 1.1 % control in data set [1] (compound at 5 μM).

`NCCc1c[nH]c(=S)n1[C@H]1COc2c(F)cc(F)cc2C1` [Compound I, (R)-5-(2-aminoethyl)-1-(6,8-difluorochroman-3-yl)-1,3-dihydroimidazole-2-thione, reference compound]: in data set [1], the “In vitro DβH inhibition” value is listed as “+” and the IC50 stood at 0.2 µM.

Turning to `NCc1c[nH]c(=S)n1[C@H]1CCc2c(F)cc(F)cc2C1` [Nepicastat, reference compound], in data set [1] (compound at 5 μM), the “% control Mean ± SEM” value is 0.4 ± 0.2 % control. Further, in data set [2], the “crossing of the blood brain barrier (BBB)” value is listed as “cross the blood brain barrier”.

For the compound `NCCc1c[nH]c(=S)n1[C@H]1COc2c(F)cc(F)cc2[C@@H]1O` [compound VI, 5-(2-Aminoethyl)-1-((3S ,4S)-6,8-difluoro-4-hydroxychroman-3-yl)-1H-imidazole-2(3H)-thione hydrochloride], in data set [1], the “In vitro DβH inhibition” value is reported as “+”.
